The record followed here is patent publication US20140296968A1, “IMPLANTABLE VASCULAR STENT” (Translumina GmbH, priority 2011, published 2014).

This series in a line: release of rapamycin in vivo.

For `CO[C@H]1C[C@@H]2CC[C@@H](C)[C@@](O)(O2)C(=O)C(=O)N2CCCC[C@H]2C(=O)O[C@H]([C@H](C)C[C@@H]2CC[C@@H](O)[C@H](OC)C2)CC(=O)[C@H](C)/C=C(\C)[C@@H](O)[C@@H](OC)C(=O)[C@H](C)C[C@H](C)/C=C/C=C/C=C/1C` [rapamycin], the “duration of the release of rapamycin” value lay in the range of 4 to 6 weeks.
